Laboratory results taken from ChEMBL document CHEMBL4765227, “Hit to lead optimization of a series of N-[4-(1,3-benzothiazol-2-yl)phenyl]acetamides as monoacylglycerol lipase inhibitors with potential anticancer activity” (Eur J Med Chem, 2016).

How the values were obtained:
Format in all cases: functional
Details in all cases: read-out: GI
[1] = tested on: SW-620; test: Growth inhibition of human SW-620 cells at 10 uM incubated for 48 hrs by sulforhodamine B assay relative to control
[2] = tested on: NCI/ADR-RES; test: Growth inhibition of human NCI/ADR-RES cells at 10 uM incubated for 48 hrs by sulforhodamine B assay relative to control
[3] = tested on: BT-549; test: Growth inhibition of human BT-549 cells at 10 uM incubated for 48 hrs by sulforhodamine B assay relative to control
[4] = tested on: KM12; test: Growth inhibition of human KM12 cells at 10 uM incubated for 48 hrs by sulforhodamine B assay relative to control
[5] = tested on: K562; test: Growth inhibition of human K562 cells at 10 uM incubated for 48 hrs by sulforhodamine B assay relative to control
[6] = tested on: TK-10; test: Growth inhibition of human TK-10 cells at 10 uM incubated for 48 hrs by sulforhodamine B assay relative to control
[7] = tested on: HL-60(TB); test: Growth inhibition of human HL-60(TB) cells at 10 uM incubated for 48 hrs by sulforhodamine B assay relative to control
[8] = tested on: M14; test: Growth inhibition of human M14 cells at 10 uM incubated for 48 hrs by sulforhodamine B assay relative to control
[9] = tested on: ACHN; test: Growth inhibition of human ACHN cells at 10 uM incubated for 48 hrs by sulforhodamine B assay relative to control
[10] = tested on: SNB-19; test: Growth inhibition of human SNB-19 cells at 10 uM incubated for 48 hrs by sulforhodamine B assay relative to control
[11] = tested on: IGROV-1; test: Growth inhibition of human IGROV-1 cells at 10 uM incubated for 48 hrs by sulforhodamine B assay relative to control
[12] = tested on: SN12C; test: Growth inhibition of human SN12C cells at 10 uM incubated for 48 hrs by sulforhodamine B assay relative to control
[13] = tested on: UACC-62; test: Growth inhibition of human UACC-62 cells at 10 uM incubated for 48 hrs by sulforhodamine B assay relative to control
[14] = tested on: OVCAR-5; test: Growth inhibition of human OVCAR-5 cells at 10 uM incubated for 48 hrs by sulforhodamine B assay relative to control
[15] = tested on: NCI-H226; test: Growth inhibition of human NCI-H226 cells at 10 uM incubated for 48 hrs by sulforhodamine B assay relative to control
[16] = tested on: T47D; test: Growth inhibition of human T47D cells at 10 uM incubated for 48 hrs by sulforhodamine B assay relative to control
[17] = tested on: CCRF-CEM; test: Growth inhibition of human CCRF-CEM cells at 10 uM incubated for 48 hrs by sulforhodamine B assay relative to control
[18] = tested on: RPMI-8226; test: Growth inhibition of human RPMI-8226 cells at 10 uM incubated for 48 hrs by sulforhodamine B assay relative to control
[19] = tested on: UO-31; test: Growth inhibition of human UO-31 cells at 10 uM incubated for 48 hrs by sulforhodamine B assay relative to control
[20] = tested on: PC-3; test: Growth inhibition of human PC-3 cells at 10 uM incubated for 48 hrs by sulforhodamine B assay relative to control
[21] = tested on: RXF 393; test: Growth inhibition of human RXF 393 cells at 10 uM incubated for 48 hrs by sulforhodamine B assay relative to control
[22] = tested on: SK-MEL-5; test: Growth inhibition of human SK-MEL-5 cells at 10 uM incubated for 48 hrs by sulforhodamine B assay relative to control
[23] = tested on: NCI-H460; test: Growth inhibition of human NCI-H460 cells at 10 uM incubated for 48 hrs by sulforhodamine B assay relative to control
[24] = tested on: HCT-116; test: Growth inhibition of human HCT-116 cells at 10 uM incubated for 48 hrs by sulforhodamine B assay relative to control
[25] = tested on: HOP-62; test: Growth inhibition of human HOP-62 cells at 10 uM incubated for 48 hrs by sulforhodamine B assay relative to control
[26] = tested on: CAKI-1; test: Growth inhibition of human CAKI-1 cells at 10 uM incubated for 48 hrs by sulforhodamine B assay relative to control
[27] = tested on: NCI-H322M; test: Growth inhibition of human NCI-H322M cells at 10 uM incubated for 48 hrs by sulforhodamine B assay relative to control
[28] = tested on: HCC 2998; test: Growth inhibition of human HCC 2998 cells at 10 uM incubated for 48 hrs by sulforhodamine B assay relative to control
[29] = tested on: Malme-3M; test: Growth inhibition of human Malme-3M cells at 10 uM incubated for 48 hrs by sulforhodamine B assay relative to control
[30] = tested on: SK-OV-3; test: Growth inhibition of human SK-OV-3 cells at 10 uM incubated for 48 hrs by sulforhodamine B assay relative to control
[31] = tested on: HCT-15; test: Growth inhibition of human HCT-15 cells at 10 uM incubated for 48 hrs by sulforhodamine B assay relative to control
[32] = tested on: MDA-MB-231; test: Growth inhibition of human MDA-MB-231 cells at 10 uM incubated for 48 hrs by sulforhodamine B assay relative to control
[33] = tested on: U-251; test: Growth inhibition of human U-251 cells at 10 uM incubated for 48 hrs by sulforhodamine B assay relative to control
[34] = tested on: MDA-MB-435; test: Growth inhibition of human MDA-MB-435 cells at 10 uM incubated for 48 hrs by sulforhodamine B assay relative to control
[35] = tested on: MOLT-4; test: Growth inhibition of human MOLT-4 cells at 10 uM incubated for 48 hrs by sulforhodamine B assay relative to control
[36] = tested on: A549; test: Growth inhibition of human A549/ATCC cells at 10 uM incubated for 48 hrs by sulforhodamine B assay relative to control
[37] = tested on: SK-MEL-28; test: Growth inhibition of human SK-MEL-28 cells at 10 uM incubated for 48 hrs by sulforhodamine B assay relative to control
[38] = tested on: HT-29; test: Growth inhibition of human HT-29 cells at 10 uM incubated for 48 hrs by sulforhodamine B assay relative to control
[39] = tested on: MDA-MB-468; test: Growth inhibition of human MDA-MB-468 cells at 10 uM incubated for 48 hrs by sulforhodamine B assay relative to control
[40] = tested on: NCI-H522; test: Growth inhibition of human NCI-H522 cells at 10 uM incubated for 48 hrs by sulforhodamine B assay relative to control
[41] = tested on: HOP-92; test: Growth inhibition of human HOP-92 cells at 10 uM incubated for 48 hrs by sulforhodamine B assay relative to control
[42] = tested on: DU-145; test: Growth inhibition of human DU-145 cells at 10 uM incubated for 48 hrs by sulforhodamine B assay relative to control
[43] = tested on: SNB-75; test: Growth inhibition of human SNB-75 cells at 10 uM incubated for 48 hrs by sulforhodamine B assay relative to control
[44] = tested on: OVCAR-8; test: Growth inhibition of human OVCAR-8 cells at 10 uM incubated for 48 hrs by sulforhodamine B assay relative to control

How did the inhibition of growth at 10 µM [1] turn out when `O=C(Cn1cnc2ccccc21)Nc1ccc(-c2nc3ccccc3s2)cc1` was run?
The inhibition of growth at 10 µM was 15.2%.

And the inhibition of growth at 10 µM [2]?
The inhibition of growth at 10 µM was 38.9%.

What about the inhibition of growth at 10 µM [3] of the same compound?
The inhibition of growth at 10 µM was 43.5%.

And the inhibition of growth at 10 µM [4]?
The inhibition of growth at 10 µM was 24.9%.

What about the inhibition of growth at 10 µM [5] of the same compound?
Its inhibition of growth at 10 µM is 66.4%.

What about the inhibition of growth at 10 µM [6] of the same compound?
Its inhibition of growth at 10 µM is 22.6%.

What about the inhibition of growth at 10 µM [7] of the same compound?
Its inhibition of growth at 10 µM is 29.8%.

What about the inhibition of growth at 10 µM [8] of the same compound?
Its inhibition of growth at 10 µM is 13.6%.

And the inhibition of growth at 10 µM [9]?
Its inhibition of growth at 10 µM is 15.5%.

And the inhibition of growth at 10 µM [10]?
Its inhibition of growth at 10 µM is 28.5%.

What about the inhibition of growth at 10 µM [11] of the same compound?
The inhibition of growth at 10 µM was 35.1%.

And the inhibition of growth at 10 µM [12]?
The inhibition of growth at 10 µM was 16.2%.

What about the inhibition of growth at 10 µM [13] of the same compound?
The inhibition of growth at 10 µM was 13%.

What about the inhibition of growth at 10 µM [14] of the same compound?
Its inhibition of growth at 10 µM is -5.63%.

What about the inhibition of growth at 10 µM [15] of the same compound?
Its inhibition of growth at 10 µM is 36.9%.

And the inhibition of growth at 10 µM [16]?
Its inhibition of growth at 10 µM is 52.8%.

And the inhibition of growth at 10 µM [17]?
Its inhibition of growth at 10 µM is 27.1%.

And the inhibition of growth at 10 µM [18]?
Its inhibition of growth at 10 µM is 62.6%.

And the inhibition of growth at 10 µM [19]?
The inhibition of growth at 10 µM was 35.4%.

What about the inhibition of growth at 10 µM [20] of the same compound?
Its inhibition of growth at 10 µM is 33.3%.

And the inhibition of growth at 10 µM [21]?
Its inhibition of growth at 10 µM is 6.89%.

What about the inhibition of growth at 10 µM [22] of the same compound?
Its inhibition of growth at 10 µM is 70.9%.

And the inhibition of growth at 10 µM [23]?
The inhibition of growth at 10 µM was 34.3%.

What about the inhibition of growth at 10 µM [24] of the same compound?
The inhibition of growth at 10 µM was 56.5%.

And the inhibition of growth at 10 µM [25]?
The inhibition of growth at 10 µM was 12.6%.

What about the inhibition of growth at 10 µM [26] of the same compound?
Its inhibition of growth at 10 µM is 38.1%.

What about the inhibition of growth at 10 µM [27] of the same compound?
Its inhibition of growth at 10 µM is 8.06%.

And the inhibition of growth at 10 µM [28]?
Its inhibition of growth at 10 µM is 24.9%.

What about the inhibition of growth at 10 µM [29] of the same compound?
The inhibition of growth at 10 µM was 18.9%.

What about the inhibition of growth at 10 µM [30] of the same compound?
The inhibition of growth at 10 µM was 15.1%.

And the inhibition of growth at 10 µM [31]?
Its inhibition of growth at 10 µM is 7.41%.

And the inhibition of growth at 10 µM [32]?
Its inhibition of growth at 10 µM is 9.34%.

What about the inhibition of growth at 10 µM [33] of the same compound?
Its inhibition of growth at 10 µM is 30.6%.

What about the inhibition of growth at 10 µM [34] of the same compound?
The inhibition of growth at 10 µM was 32.3%.

And the inhibition of growth at 10 µM [35]?
The inhibition of growth at 10 µM was 44.2%.

What about the inhibition of growth at 10 µM [36] of the same compound?
Its inhibition of growth at 10 µM is 39%.

What about the inhibition of growth at 10 µM [37] of the same compound?
The inhibition of growth at 10 µM was -0.72%.

What about the inhibition of growth at 10 µM [38] of the same compound?
The inhibition of growth at 10 µM was 12.7%.

And the inhibition of growth at 10 µM [39]?
Its inhibition of growth at 10 µM is 70.3%.

What about the inhibition of growth at 10 µM [40] of the same compound?
Its inhibition of growth at 10 µM is 33.4%.

And the inhibition of growth at 10 µM [41]?
Its inhibition of growth at 10 µM is 18.4%.

And the inhibition of growth at 10 µM [42]?
The inhibition of growth at 10 µM was 21.8%.

What about the inhibition of growth at 10 µM [43] of the same compound?
The inhibition of growth at 10 µM was 6.6%.

And the inhibition of growth at 10 µM [44]?
The inhibition of growth at 10 µM was 28%.
